SMILES strings stand for the structures.

The target in the assay is T1, human CRTH2 (Homo sapiens, UniProt Q9Y5Y4).
T1 construct: expressed in transfected cells
T1 sequence (Q9Y5Y4 1-395): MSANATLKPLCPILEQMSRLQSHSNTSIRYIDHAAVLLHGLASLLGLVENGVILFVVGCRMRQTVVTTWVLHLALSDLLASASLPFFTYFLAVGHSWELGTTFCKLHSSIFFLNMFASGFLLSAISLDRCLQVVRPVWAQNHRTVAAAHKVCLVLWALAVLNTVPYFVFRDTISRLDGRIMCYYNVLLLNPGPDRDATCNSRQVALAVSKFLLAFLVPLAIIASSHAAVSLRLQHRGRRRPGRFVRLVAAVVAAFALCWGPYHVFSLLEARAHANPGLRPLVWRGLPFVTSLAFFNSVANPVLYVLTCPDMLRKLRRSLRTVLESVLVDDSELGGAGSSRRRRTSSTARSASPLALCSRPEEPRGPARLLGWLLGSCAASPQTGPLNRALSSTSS
The experiment in a line: Human CRTH2 Receptor Binding Assay (whole cell, [3H]ramatroban competition). The following applies: CHO-K1 cells expressing human CRTH2 and G-alpha16; 20 nM [3H]ramatroban; 1 hour, room temperature. The essentials:
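CHO-K1 cells stably co-expressing human CRTH2 and G-alpha16, 1.5×10^5 per reaction, incubated 1 hour at room temperature with 20 nM [3H]ramatroban in PBS containing 10 mM MgCl2 and 0.06% BSA. Non-specific binding defined with 10 μM 15(R)-15-methyl PGD2. IC50 from 7 concentrations by 4-parameter logistic fit of specific binding inhibition.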
`C[Si](C)(C)c1cccc(-c2ccc(S(=O)(=O)N[C@@H]3CCCc4c3cnn4CC(=O)O)cc2)c1` [Example 10-26a, [(R)-4-(3′-Trimethylsilanyl-biphenyl-4-sulfonylamino)-4,5,6,7-tetrahydro-indazol-1-yl]-acetic acid] showed a concentration for half-maximal inhibition (IC50) of 2.1 nM.

As for `CC(C)c1cccc(-c2ccc(S(=O)(=O)N[C@@H]3CCCc4c3cnn4CC(=O)O)cc2)c1` [Example 10-27a, [(R)-4-(3′-Isopropyl-biphenyl-4-sulfonylamino)-4,5,6,7-tetrahydro-indazol-1-yl]-acetic acid], the IC50 amounted to 5.1 nM.

As for `CS(=O)(=O)c1cccc(-c2ccc(S(=O)(=O)N[C@@H]3CCCc4c3cnn4CC(=O)O)cc2)c1` [Example 10-28a, [(R)-4-(3′-Methanesulfonyl-biphenyl-4-sulfonylamino)-4,5,6,7-tetrahydro-indazol-1-yl]-acetic acid], the concentration for half-maximal inhibition (IC50) was found to be 6.6 nM.

In turn, `C[S+]([O-])c1cccc(-c2ccc(S(=O)(=O)N[C@@H]3CCCc4c3cnn4CC(=O)O)cc2)c1` (stereo partly drawn) [Example 10-29a, [(R)-4-(3′-Methanesulfinyl-biphenyl-4-sulfonylamino)-4,5,6,7-tetrahydro-indazol-1-yl]-acetic acid] yielded a half-maximal inhibitory concentration (IC50) of 27.5 nM. Against the preceding molecule, the IC50 is about 4.2-fold higher.

`O=C(O)CCn1ncc2c1CCC[C@H]2NS(=O)(=O)c1ccc(-c2cccc(C(F)(F)F)c2)cc1` [Example 10-31a, 3-[(R)-4-(3′-Trifluoromethyl-biphenyl-4-sulfonylamino)-4,5,6,7-tetrahydro-indazol-1-yl]-propionic acid] displayed a 50% inhibitory concentration (IC50) of 5.6 nM.

On to `CN([C@@H]1CCCc2c1cnn2CC(=O)O)S(=O)(=O)c1ccc(-c2cccc(C(F)(F)F)c2)cc1` [Example 11-1a, {(R)-4-[Methyl-(3′-trifluoromethyl-biphenyl-4-sulfonyl)-amino]-4,5,6,7-tetrahydro-indazol-1-yl}-acetic acid], for which the IC50 came to 7.3 nM.

`CN([C@@H]1CCCc2c1cnn2CCC(=O)O)S(=O)(=O)c1ccc(-c2cccc(C(F)(F)F)c2)cc1` [Example 11-2a, 3-{(R)-4-[Methyl-(3′-trifluoromethyl-biphenyl-4-sulfonyl)-amino]-4,5,6,7-tetrahydro-indazol-1-yl}-propionic acid]: the IC50 is 80.7 nM.

As for `CN([C@@H]1CCCc2c1cnn2CC(=O)O)S(=O)(=O)c1cc(-c2ccc(F)cc2)cc(C(F)(F)F)c1` [Example 12-1a, {(R)-4-[(4′-Fluoro-5-trifluoromethyl-biphenyl-3-sulfonyl)-methyl-amino]-4,5,6,7-tetrahydro-indazol-1-yl}-acetic acid], the IC50 was 130 nM.

For `CN([C@@H]1CCCc2c1cnn2CC(=O)O)S(=O)(=O)c1cc(C(F)(F)F)cc(S(=O)(=O)c2ccc(Cl)cc2)c1` [Example 13-1a, ((R)-4-{[3-(4-Chloro-benzenesulfonyl)-5-trifluoromethyl-benzenesulfonyl]-methylamino}-4,5,6,7-tetrahydro-indazol-1-yl)-acetic acid], the 50% inhibitory concentration (IC50) came to 2.9 nM.

The molecule `Cc1ccc(S(=O)(=O)c2cc(C(F)(F)F)cc(S(=O)(=O)N(C)[C@@H]3CCCc4c3cnn4CC(=O)O)c2)cc1` [Example 13-2a, ((R)-4-{Methyl-[3-(toluene-4-sulfonyl)-5-trifluoromethyl-benzenesulfonyl]-amino}-4,5,6,7-tetrahydro-indazol-1-yl)-acetic acid] showed an IC50 of 2.7 nM.

In turn, `CN([C@@H]1CCCc2c1cnn2CCC(=O)O)S(=O)(=O)c1cc(C(F)(F)F)cc(S(=O)(=O)c2ccc(F)cc2)c1` [Example 13-3a, 3-((R)-4-{[3-(4-Fluoro-benzenesulfonyl)-5-trifluoromethyl-benzenesulfonyl]-methyl-amino}-4,5,6,7-tetrahydro-indazol-1-yl)-propionic acid] returned an IC50 of 4 nM.

On to `CN([C@@H]1CCCc2c1cnn2CCC(=O)O)S(=O)(=O)c1cc(C(F)(F)F)cc(S(=O)(=O)c2ccc(Cl)cc2)c1` [Example 13-4a, 3-((R)-4-{[3-(4-Chloro-benzenesulfonyl)-5-trifluoromethyl-benzenesulfonyl]-methyl-amino}-4,5,6,7-tetrahydro-indazol-1-yl)-propionic acid], for which the IC50 worked out at 2.5 nM. This IC50 lies about 1.6-fold lower than the previous one.

Regarding `COc1ccc(S(=O)(=O)c2cc(C(F)(F)F)cc(S(=O)(=O)N(C)[C@@H]3CCCc4c3cnn4CCC(=O)O)c2)cc1` [Example 13-5a, 3-((R)-4-{[3-(4-Methoxy-benzenesulfonyl)-5-trifluoromethyl-benzenesulfonyl]-methyl-amino}-4,5,6,7-tetrahydro-indazol-1-yl)-propionic acid], the IC50 worked out at 5.8 nM.

On to `Cc1ccc(S(=O)(=O)c2cc(C(F)(F)F)cc(S(=O)(=O)N(C)[C@@H]3CCCc4c3cnn4CCC(=O)O)c2)cc1` [Example 13-6a, 3-((R)-4-{Methyl-[3-(toluene-4-sulfonyl)-5-trifluoromethyl-benzenesulfonyl]-amino}-4,5,6,7-tetrahydro-indazol-1-yl)-propionic acid], for which the IC50 was 7.8 nM.

Regarding `O=C(O)Cn1ncc2c1CCCC2NS(=O)(=O)c1cccc(NC(=O)c2ccccc2)c1` (stereo not shown) [Example 14-1a, [4-(3-Benzoylamino-benzenesulfonylamino)-4,5,6,7-tetrahydro-indazol-1-yl]-acetic acid], the concentration for half-maximal inhibition (IC50) came to 356 nM.

As to `O=C(O)Cn1ncc2c1CCCC2NS(=O)(=O)c1cccc(NS(=O)(=O)c2ccccc2)c1` (stereo not shown) [Example 15-1a, [4-(3-Benzenesulfonylamino-benzenesulfonylamino)-4,5,6,7-tetrahydro-indazol-1-yl]-acetic acid], the IC50 is 360 nM.

For orientation: IC50 means the concentration at which inhibition is half-maximal. A high value points to weaker potency.

For the origin of these results see US8420675B2, “Aminotetrahydroindazoloacetic acids” (Hoffmann-La Roche Inc., priority 2008, dated 2013).
